Where two headings read alike, the source gives them in different places.
Legend:
C98A,C107ACB1^WT = C98A,C107ACB1^WT (Homo sapiens, UniProt P21554, C107A/C98A); settings: [3H]CP55940 binding, N-terminal C98-C107 disulfide removed by mutation
CB1^WT = CB1^WT (Homo sapiens, UniProt P21554); settings: [3H]CP55940 binding
CB1 = CB1 (Homo sapiens, UniProt P21554); format: binding
[1] = CB1^WT treated with 10 mM DTT for 20 min prior to assay

Sequence of CB1^WT (P21554 whole entry): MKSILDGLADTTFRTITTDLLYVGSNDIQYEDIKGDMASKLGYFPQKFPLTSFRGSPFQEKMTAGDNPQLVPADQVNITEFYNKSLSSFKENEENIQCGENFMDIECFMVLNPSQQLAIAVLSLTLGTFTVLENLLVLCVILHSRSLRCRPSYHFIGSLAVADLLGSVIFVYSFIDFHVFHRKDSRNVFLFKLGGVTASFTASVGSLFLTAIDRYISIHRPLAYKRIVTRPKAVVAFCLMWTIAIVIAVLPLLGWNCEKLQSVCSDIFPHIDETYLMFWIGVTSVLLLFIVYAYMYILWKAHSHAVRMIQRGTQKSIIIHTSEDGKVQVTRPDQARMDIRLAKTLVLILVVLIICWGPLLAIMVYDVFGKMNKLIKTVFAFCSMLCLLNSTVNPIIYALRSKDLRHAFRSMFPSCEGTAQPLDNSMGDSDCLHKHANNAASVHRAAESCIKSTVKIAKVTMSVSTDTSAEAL
Sequence of C98A,C107ACB1^WT (P21554 whole entry C98A/C107A): as the sequence (P21554 whole entry) above, with C98A, C107A counted along it
Sequence of CB1 (P21554 whole entry): as the sequence (P21554 whole entry) above

With `CCc1c(C(=O)NCCc2ccc(N3CCCCC3)cc2)[nH]c2ccc(Cl)cc12` [Org 27569] as the compound, how does the “allosteric cooperativity factor α for agonist binding” value (from here on “allosteric cooperativity factor α”) (C98A,C107ACB1^WT) read?
Its value is 7.8 ± 0.5.

And the “allosteric cooperativity factor α” value (CB1^WT; [1])?
Its value is 6.8 ± 0.3.

What about the “allosteric cooperativity factor α” value (CB1^WT; untreated CB1^WT) of the same compound?
Its value is 4.9 ± 0.4.

Which “cooperativity factor α between orthosteric ligand and DTT” value (CB1) does the source give for `CCCCCCC(C)(C)c1ccc([C@@H]2C[C@H](O)CC[C@H]2CCCO)c(O)c1` [CP55940, (-)-cis-3-[2-hydroxy-4-(1,1-dimethyl-heptyl)phenyl]-trans-4-(3-hydroxypropyl)cyclohexanol] here?
Its value is 0.69 ± 0.08.

For `O=C(Nc1ccc(Cl)cc1)Nc1cccc(-c2cccc(N3CCCC3)n2)c1` [PSNCBAM-1, 1-(4-chlorophenyl)-3-[3-(6-pyrrolidin-1-ylpyridin-2-yl)phenyl]urea], which “allosteric cooperativity factor α” value (CB1^WT; [1]) is on record?
The value was 5.9 ± 0.3.

What about the “allosteric cooperativity factor α” value (CB1^WT; untreated CB1^WT) of the same compound?
Its value is 4.2 ± 0.2.
